Patent US20070078262A1, “Thiomorpholino steroid compounds, the use thereof for the preparation of meiosis-regulating medicaments and method for the preparation thereof” (SCHERING AKTIENGESELLSCHAFT, priority 2003, published 2007)

Test system: mouse oocytes
Assay: In vitro fertilization (IVF) after in vitro maturation of oocytes
Format: cell-based, mice (C57BL/6J×DBA/2J F1)
Protocol: Changes in the subsequent IVF are therefore probably due to effects of the test compounds on cytoplasmic maturation.
Immature female mice (C57BL/6J×DBA/2J F1) in the age of 21-24 days were used as oocyte donors. Animals were given an i.p. injection of 10 IU pregnant mare serum gonadotropin (PMSG) to induce follicular growth. Animals were killed by cervical dislocation 48 hours later and the ovaries were dissected out. As sperm donors eight week old male mice (C57BL/6J×DBA/2J F1) were used.
Oocytes were isolated from the ovaries by manual rupture of the follicles using a pair of 27-gauge needles. Spherical naked oocytes (NkO) and CEOs displaying an intact GV were selected and placed in α-minimum essential medium (α-MEM without ribonucleosides, Gibco BRL, Gaithersburg; Cat. No. 22561) supplemented with 8 mg/ml human serum albumin (HSA), 0.23 mM pyruvate, 2 mM glutamine, 100 IU/ml penicillin and 100 μg/ml streptomycin.
The oocytes were rinsed three times in culture medium without oil overlay in 4-well multidishes containing 0.4 ml of the respective oocyte culture medium.
The oocyte culture medium was supplemented with 6.4% Fetal Bovine Serum (FBS). Solutions of novel compound IA and of the two compounds in comparison as mentioned were prepared from a stock solution containing 1 mg/ml of compound dissolved in absolute ethanol. The control group was cultured with a corresponding amount of ethanol.
After a culture time of 18-19 hours oocytes were further processed for in vitro fertilization. […] Oocytes were briefly washed without any test compound and subsequently transferred to the insemination dishes prepared in advance, which contained approximately 600.000 capacitated sperm cells per 500 μl IVF medium (obtained from the epididymides of male mice). The dishes were then incubated under defined gas conditions (5% CO2 in air) at 37° C. in a modified α-MEM IVF medium supplemented with 8 mg/ml HSA, 0.23 mM pyruvate, 100 IU penicillin/ml and 100 μg streptomycin/ml as described above for oocyte maturation.
Examination of the oocytes was carried out 22-24 hours after insemination in order to check fertilization and to record the number of pronucleus (PN) and 2-cell stage embryos. The fertilization rate was determined as the number of oocytes that had reached the PN or 2-cell embryo stage, relative to the total number inseminated.

## C[C@H](CN1CCSCC1)[C@H]1CC=C2C3=C(CC[C@@]21C)[C@@]1(C)CC[C@H](O)C(C)(C)[C@@H]1CC3 [Compound IA, (20S)-20-[(thiomorpholin-4-yl)methyl]-4,4-dimethyl-5α-pregna-8,14-dien-3β-ol]
Already at 0.1 μM, tends to be even higher at 1 μM
  effect on 2-cell and blastocyst rate: beneficial effect
In vitro maturation without hypoxanthine, then IVF, n=18
  fertilization rates of mouse oocytes compared to vehicle control (FIG. 3): higher fertilization rates
